Reference: article PMC8432172, “Properties of Transport Mediated by the Human Organic Cation Transporter 2 Studied in a Polarized Three-Dimensional Epithelial Cell Culture Model” (International Journal of Molecular Sciences, 2021)
Values joined by “and” are separate entries in the source; they are usually repeats but may differ in a detail not shown here. Equal values may be shown once. “Also recorded” adds a separate entry of the source.

What was measured:
hOCT2 [1] = molecular target: T1, hOCT2 (Homo sapiens, UniProt O15244); assay: ASP+ uptake (saturation and inhibition) in hOCT2-HEK cells; format: cell-based; parameters: expressed in transfected cells; host or cells: HEK293, stably transfected; gift of Prof; Koepsell (University of Würzburg)
T1 sequence (O15244 1-555): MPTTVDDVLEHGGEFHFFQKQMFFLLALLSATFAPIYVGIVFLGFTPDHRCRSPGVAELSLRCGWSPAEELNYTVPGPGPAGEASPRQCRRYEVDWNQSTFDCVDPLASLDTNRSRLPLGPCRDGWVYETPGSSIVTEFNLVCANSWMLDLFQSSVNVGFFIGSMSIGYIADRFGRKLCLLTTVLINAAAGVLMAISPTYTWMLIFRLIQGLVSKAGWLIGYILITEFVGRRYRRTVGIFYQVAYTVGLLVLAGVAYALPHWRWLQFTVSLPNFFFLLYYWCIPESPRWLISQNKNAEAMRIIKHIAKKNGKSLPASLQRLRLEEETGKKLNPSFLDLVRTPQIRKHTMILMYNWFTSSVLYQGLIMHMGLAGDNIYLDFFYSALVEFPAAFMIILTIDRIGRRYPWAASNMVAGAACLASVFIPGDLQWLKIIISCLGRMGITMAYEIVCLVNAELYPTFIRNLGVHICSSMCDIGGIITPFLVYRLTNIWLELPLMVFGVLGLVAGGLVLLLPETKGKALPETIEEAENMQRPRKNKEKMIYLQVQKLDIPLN

hOCT2 [2] = molecular target: T1, hOCT2; assay: ASP+ uptake (saturation and inhibition) in hOCT2-MDCK cysts; format: cell-based; parameters: The full-length hOCT2 tagged at the carboxy-terminus with GFP (hOCT2-GFP); expressed in transfected cells; host or cells: MDCK II cells (ECACC 00062107), retroviral transduction with pQCXIH, grown as cysts in BME2
hOCT2 [3] = molecular target: T1, hOCT2; assay: Acute regulation of ASP+ uptake and ASP+ transport kinetics in hOCT2-MDCK cysts (10 min incubation with kinase/calmodulin inhibitors); format: cell-based; parameters: The full-length hOCT2 tagged at the carboxy-terminus with GFP (hOCT2-GFP); expressed in transfected cells; host or cells: MDCK II cells (ECACC 00062107), retroviral transduction with pQCXIH, grown as cysts in BME2; conditions: for Acute regulation of initial ASP+ uptake after 10 min incubation: 4 µM ASP+, calmidazolium 5 µM, aminogenistein 10 µM, TBBz 10 µM
Protocol: (§1) The organic cation ASP^+ was used as a fluorescent substrate of hOCT2 [54]. […] To evaluate hOCT2 function, cellular fluorescence was measured before and after ASP^+ addition in the hOCT2-HEK cells and hOCT2-MDCK and EV-MDCK cysts. Transport measurements were performed at T = 37 °C. […] The effects of the CKII regulation pathway on the kinetic parameters of ASP^+ uptake in hOCT2- MDCK-3D were investigated, comparing the saturation curves in the presence or absence of the regulator.

hOCT2 [4] = assay: Acute regulation of ASP+ uptake in hOCT2-HEK cells (10 min incubation with kinase/calmodulin inhibitors); format: cell-based, human; conditions: 1 µM ASP+, calmidazolium 5 µM, aminogenistein 10 µM, TBBz 10 µM
Protocol: as §1

endogenous canine OCT2 = assay: ASP+ uptake in EV-MDCK cysts (empty vector); format: cell-based; conditions: EV-MDCK cysts (GFP alone); 1 mM TPA+
Protocol: Upon the addition of 4 µM ASP^+, an increase in cellular fluorescence was observed over time. This fluorescence increase was much higher in the hOCT2-MDCK than the EV-MDCK cysts. […] The slope of the linear range of the ASP^+ uptake increase measured in the first 2 min after ASP^+ addition (arbitrary fluorescence units/[…]) was used as the measurement of the transporter function.
The organic cation ASP^+ was used as a fluorescent substrate of hOCT2 [54]. […] To evaluate hOCT2 function, cellular fluorescence was measured before and after ASP^+ addition in the hOCT2-HEK cells and hOCT2-MDCK and EV-MDCK cysts. Transport measurements were performed at T = 37 °C.

[5] = hOCT2-HEK cells, 1 µM ASP+, 37 °C
[6] = hOCT2-HEK cells, 1 µM ASP+, 37 °C, read-out: IC50 for the inhibition of ASP+ uptake
[7] = hOCT2-MDCK cysts, 4 µM ASP+, 37 °C
[8] = hOCT2-MDCK cysts, 4 µM ASP+, 37 °C, read-out: IC50 for the inhibition of ASP+ uptake

Row | Compound | logIC50 ± SEM for the inhibition of ASP+ uptake (hOCT2 [1]; [5]) | IC50 (hOCT2 [1]; [6]) | logIC50 ± SEM for the inhibition of ASP+ uptake (hOCT2 [2]; [7]) | IC50 (hOCT2 [2]; [8]) | Acute regulation of initial ASP+ uptake after 10 min incubation (hOCT2 [4]) | Acute regulation of initial ASP+ uptake after 10 min incubation (hOCT2 [3]) | further results
1 | CN(C)c1ccc(C=Cc2cc[n+](C)cc2)cc1 [ASP^+, 4-(4-(dimethylamino)styryl)-N-methylpyridinium] |  |  |  |  |  |  | Km (hOCT2 [1]; hOCT2-HEK cells, 0-20 µM ASP+, uptake in presence of 1 mM TPA+ subtracted, 37 °C, read-out: Km ± SEM of specific ASP+ uptake): 3.1 ± 0.2 µM; Km (hOCT2 [2]; hOCT2-MDCK cysts, 0-20 µM ASP+, uptake in presence of 1 mM TPA+ subtracted, 37 °C, read-out: Km ± SEM of specific ASP+ uptake): 3.6 ± 1.2 µM; Vmax of ASP+ transport, control (-TBBz) (hOCT2 [3]; 10 min preincubation with control solution): 6.1 ± 0.1 a.u./s^2; Km (hOCT2 [3]; 10 min preincubation with control solution, read-out: Km of ASP+ transport, control (-TBBz)): 2.6 ± 0.2 µM
2 | CCS(=O)(=O)N1CC(CC#N)(n2cc(-c3ncnc4[nH]ccc34)cn2)C1 [Baricitinib, baricitinib] | −6.00 ± 0.06 | 1.1 µM | −4.81 ± 0.06 | 15.4 µM |  |  | logIC50 ± SEM for the inhibition of ASP+ uptake (hOCT2 [1]; hOCT2-HEK cells, 1 µM ASP+, 37 °C, listed as baricitinib): −6.0 ± 0.1; logIC50 ± SEM for the inhibition of ASP+ uptake (hOCT2 [2]; hOCT2-MDCK cysts, 4 µM ASP+, 37 °C, listed as baricitinib): −4.8 ± 0.1
3 | CN(C)C(=N)N=C(N)N [Metformin, metformin] | −3.10 ± 0.11 | 804 µM | −3.05 ± 0.09 | 884 µM |  |  | logIC50 ± SEM for the inhibition of ASP+ uptake (hOCT2 [1]; hOCT2-HEK cells, 1 µM ASP+, 37 °C, listed as metformin): −3.1 ± 0.1; logIC50 ± SEM for the inhibition of ASP+ uptake (hOCT2 [2]; hOCT2-MDCK cysts, 4 µM ASP+, 37 °C, listed as metformin): −3.1 ± 0.1
4 | Brc1c(Br)c(Br)c2[nH]cnc2c1Br [TBBz, 4,5,6,7-tetrabromobenzimidazole] |  |  |  |  | only in the hOCT2-MDCK cysts | rapid decrease in ASP^+ uptake only in the hOCT2-MDCK cysts | Vmax of ASP+ transport under CKII inhibition (+TBBz) (hOCT2 [3]; 10 min preincubation with 10 µM TBBz): 3.9 ± 0.8 a.u./s^2
5 | CC[N+](CC)(CC)CC [TEA^+, tetraethylammonium] | −5.1 ± 0.1 and −5.12 ± 0.08 | 7.6 µM | −4.7 ± 0.1 and −4.67 ± 0.11 | 21.3 µM |  |  | 
6 | CCCCC[N+](CCCCC)(CCCCC)CCCCC [TPA^+, tetrapentylammonium] | −5.9 ± 0.2 and −5.85 ± 0.11 |  | −6.1 ± 0.1 and −6.04 ± 0.05 |  |  |  | Inhibition of uptake of 4 µM ASP+ by 1 mM competitor (endogenous canine OCT2): significantly inhibited; IC50 (hOCT2 [1]): 1.4 µM; IC50 (hOCT2 [2]): 0.9 µM; Inhibition of uptake of 4 µM ASP+ by 1 mM competitor (hOCT2 [2]; hOCT2-MDCK cysts, 1 mM TPA+ in uptake buffer): almost completely inhibited; also recorded: completely suppressed
7 | Nc1ccc(-c2cc(=O)c3cc(O)ccc3o2)cc1 [aminogenistein] |  |  |  |  | rapid decrease in ASP^+ uptake | rapid decrease in ASP^+ uptake | 
8 | Clc1ccc(C(c2ccc(Cl)cc2)n2cc[n+](CC(OCc3ccc(Cl)cc3Cl)c3ccc(Cl)cc3Cl)c2)cc1 (stereo not drawn) [calmidazolium] |  |  |  |  | rapid decrease in ASP^+ uptake | rapid decrease in ASP^+ uptake | 
